Experimental data published in ChEMBL document CHEMBL1697781, “Assessment of the health effects of chemicals in humans: II. Construction of an adverse effects database for QSAR modeling” (Curr Drug Discov Technol, 2004).

Experiments:
Conditions in all cases: human; call rule not given here
[1] = system: Hepatotoxicity; test: FDA HLAED, liver enzyme composite activity
[2] = system: Hepatotoxicity; test: FDA HLAED, alkaline phosphatase increase
[3] = system: Hepatotoxicity; test: FDA HLAED, serum glutamic oxaloacetic transaminase (SGOT) increase
[4] = system: Hepatotoxicity; test: FDA HLAED, serum glutamic pyruvic transaminase (SGPT) increase
[5] = system: Hepatotoxicity; test: FDA HLAED, lactate dehydrogenase (LDH) increase
[6] = system: Hepatotoxicity; test: FDA HLAED, gamma-glutamyl transferase (GGT) increase
Throughout, for GGT Increase - Index Value: reference of the scale not given here.
Throughout, for LDH Increase - Index Value: reference of the scale not given here.

SMILES	Composite Activity - Active [1]	Composite Activity - Marginal [1]	Composite Activity - Score [1]	Alkaline Phosphatase Increase - Activity Score [2]	Alkaline Phosphatase Increase - Index Value [2]	Alkaline Phosphatase Increase - Number of Reports [2]	SGOT Increase - Activity Score [3]	SGOT Increase - Index Value [3]	SGOT Increase - Number of Reports [3]	SGPT Increase - Activity Score [4]	SGPT Increase - Index Value [4]	SGPT Increase - Number of Reports [4]	LDH Increase - Activity Score [5]	LDH Increase - Index Value [5]	LDH Increase - Number of Reports [5]	GGT Increase - Activity Score [6]	GGT Increase - Index Value [6]	GGT Increase - Number of Reports [6]
N=C(N)NCC1COC2(CCCCC2)O1 (stereo unspecified)	0	0	Inactive	Inactive	0	< 4	Inactive	0	< 4	Inactive	0	< 4	Inactive	0	< 4	Inactive	0	< 4
CCCCC(=O)N(Cc1ccc(-c2ccccc2-c2nnn[nH]2)cc1)[C@H](C(=O)O)C(C)C	0	0	Inactive	Inactive	0	< 4	Inactive	5	< 4	Inactive	7.6	< 4	Inactive	0	< 4	Inactive	2.5	< 4
CCOC(=O)[C@H](CCc1ccccc1)N[C@@H](C)C(=O)N1[C@H](C(=O)O)C[C@@H]2CCC[C@@H]21	0	0	Inactive	Inactive	1.1	>= 4	Inactive	0.8	< 4	Inactive	0.5	< 4	Inactive	0.5	< 4	Inactive	1.4	>= 4
O=C(O)[C@@H](S)[C@@H](S)C(=O)O	4	0	Active	Active	175.4	>= 4	Active	175.4	>= 4	Active	131.6	< 4	Inactive	43.9	< 4	Active	87.7	< 4
COc1ccc(-c2ccc3cc(C(=O)O)ccc3c2)cc1C12CC3CC(CC(C3)C1)C2	0	0	Inactive	Inactive	0	< 4	Inactive	0	< 4	Inactive	0	< 4	Inactive	0	< 4	Inactive	0	< 4
CNS(=O)(=O)Cc1ccc2[nH]cc(CCN(C)C)c2c1	0	0	Inactive	Inactive	0.1	>= 4	Inactive	0.3	>= 4	Inactive	0.3	>= 4	Inactive	0.1	>= 4	Inactive	0.1	< 4
COc1ccc(CC2c3cc(OC)c(OC)cc3CC[N+]2(C)CCC(=O)OCCCCCOC(=O)CC[N+]2(C)CCc3cc(OC)c(OC)cc3C2Cc2ccc(OC)c(OC)c2)cc1OC (stereo unspecified)	0	0	Inactive	Inactive	0	< 4	Inactive	0	< 4	Inactive	0	< 4	Inactive	0	< 4	Inactive	0	< 4
CC1=C(CC(=O)O)c2cc(F)ccc2/C1=C\c1ccc([S+](C)[O-])cc1 (stereo unspecified)	0	0	Inactive	Inactive	0	< 4	Inactive	0	< 4	Inactive	0	< 4	Inactive	0	< 4	Inactive	0	< 4
CCOC(=O)[C@H](CCc1ccccc1)N[C@@H](C)C(=O)N1Cc2ccccc2C[C@H]1C(=O)O	0	0	Inactive	Inactive	1.4	>= 4	Inactive	1.1	>= 4	Inactive	1.2	>= 4	Inactive	0.4	< 4	Inactive	1.4	>= 4
CO/N=C(\C(=O)N[C@@H]1C(=O)N2C(C(=O)[O-])=C(C[N+]3(C)CCCC3)CS[C@H]12)c1csc(N)n1	1	0	Inactive	Inactive	1	< 4	Inactive	13.7	< 4	Active	68.4	>= 4	Inactive	27.4	< 4	Inactive	27.4	< 4
CC(C)(C)NC(=O)[C@@H]1CN(Cc2cccnc2)CCN1C[C@@H](O)C[C@@H](Cc1ccccc1)C(=O)N[C@H]1c2ccccc2C[C@H]1O.O	5	0	Active	Active	54.8	>= 4	Active	137	>= 4	Active	116.4	>= 4	Active	44.5	>= 4	Active	13.7	< 4
CCOC(=O)[C@H](CCc1ccccc1)N[C@@H](C)C(=O)N1CCC[C@H]1C(=O)O	0	0	Inactive	Inactive	0.9	>= 4	Inactive	1	>= 4	Inactive	0.8	>= 4	Inactive	0.6	>= 4	Inactive	0.2	>= 4
